Seven compounds from ChEMBL document CHEMBL4014286, “Discovery of orally active hepatoselective glucokinase activators for treatment of Type II Diabetes Mellitus” (Bioorg Med Chem Lett, 2017) can be followed below.

Activity calls are given as the source filed them.

A short description of data set [1]: Ratio of drug level in HFD-fed C57BL/6 mouse pancreas to plasma at 10 mg/kg, po measured 4 hrs post dose. The format is ADME, organism-based.
Data set [2] can be described thus: Half life in rat. The settings on record: in vivo. The format is ADME.
The target in another data set is T1, Hexokinase-4 (Homo sapiens, UniProt P35557).
T1 sequence (P35557 whole entry): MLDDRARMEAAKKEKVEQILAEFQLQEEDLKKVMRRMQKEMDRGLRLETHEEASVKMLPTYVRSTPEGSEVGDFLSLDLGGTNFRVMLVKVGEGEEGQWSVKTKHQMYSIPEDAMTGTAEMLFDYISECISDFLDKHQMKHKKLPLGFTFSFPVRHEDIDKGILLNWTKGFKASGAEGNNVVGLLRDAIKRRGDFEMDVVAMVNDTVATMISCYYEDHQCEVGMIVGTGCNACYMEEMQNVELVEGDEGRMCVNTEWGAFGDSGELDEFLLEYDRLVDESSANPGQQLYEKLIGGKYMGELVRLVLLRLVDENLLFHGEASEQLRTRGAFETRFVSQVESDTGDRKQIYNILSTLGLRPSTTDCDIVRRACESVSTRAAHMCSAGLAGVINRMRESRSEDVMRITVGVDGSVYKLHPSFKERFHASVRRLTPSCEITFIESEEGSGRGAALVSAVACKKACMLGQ
The data set can be described thus: Activation of recombinant human glucokinase assessed as conversion of D-glucose to D-glucose-6-phosphate in presence of 10 mM glucose by G6PDH coupled spectrophotometric assay.

The test system of data set [3] is Mus musculus. The data set can be described thus: Antidiabetic activity in HFD-fed C57BL/6 mouse assessed as decrease in blood glucose level at 10 mg/kg, po. The format is functional, organism-based.
Data set [4] can be described thus: Apparent permeability of the compound. Particulars: not told. The format is physicochemical.
For data set [5], the system named is Mus musculus. The data set can be described thus: Toxicity in HFD-fed C57BL/6 mouse assessed as increase in plasma insulin level at 10 mg/kg, po. Particulars: in vivo. The format is organism-based.
Data set [6] is described as follows: Ratio of drug level in HFD-fed C57BL/6 mouse liver to plasma at 10 mg/kg, po measured 4 hrs post dose. In kind it is ADME, organism-based.
Data set [7] can be described thus: Clearance in rat. The settings on record: in vivo. The format is ADME.
The nature of data set [8]: Total drug level in HFD-fed C57BL/6 mouse plasma at 10 mg/kg, po measured 4 hrs post dose. In kind it is ADME, organism-based.
A short description of data set [9]: Total drug level in HFD-fed C57BL/6 mouse pancreas at 10 mg/kg, po measured 4 hrs post dose. The format is ADME, organism-based. The settings on record: read-out: Drug uptake.
Data set [10] is described as follows: Ratio of drug level in HFD-fed C57BL/6 mouse liver to pancreas at 10 mg/kg, po measured 4 hrs post dose. In kind it is ADME, organism-based. Particulars: in vivo.
A short description of data set [11]: Total drug level in HFD-fed C57BL/6 mouse liver at 10 mg/kg, po measured 4 hrs post dose. In kind it is ADME, organism-based. Particulars: read-out: Drug uptake.
A short description of data set [12]: Oral bioavailability in rat. In kind it is ADME, organism-based. Particulars: in vivo.
Data set [13] in a line: Total drug level in HFD-fed C57BL/6 mouse plasma at 30 mg/kg, po measured 4 hrs post dose. The format is ADME, organism-based.
Data set [14] in a line: Ratio of drug level in HFD-fed C57BL/6 mouse liver to plasma at 30 mg/kg, po measured 4 hrs post dose. In kind it is ADME, organism-based.
The nature of data set [15]: Ratio of drug level in HFD-fed C57BL/6 mouse liver to plasma at 3 mg/kg, po measured 4 hrs post dose. The format is ADME, organism-based.
Data set [16] in a line: Total drug level in HFD-fed C57BL/6 mouse liver at 30 mg/kg, po measured 4 hrs post dose. In kind it is ADME, organism-based. Particulars: read-out: Drug uptake.
The nature of data set [17]: Ratio of drug level in HFD-fed C57BL/6 mouse pancreas to plasma at 30 mg/kg, po measured 4 hrs post dose. The format is ADME, organism-based.
Data set [18] concerns Mus musculus. In words: Toxicity in HFD-fed C57BL/6 mouse assessed as increase in plasma insulin level at 30 mg/kg, po. The format is organism-based. Particulars: in vivo.
The nature of data set [19]: Ratio of drug level in HFD-fed C57BL/6 mouse pancreas to plasma at 3 mg/kg, po measured 4 hrs post dose. In kind it is ADME, organism-based.
The nature of data set [20]: Total drug level in HFD-fed C57BL/6 mouse liver at 3 mg/kg, po measured 4 hrs post dose. The format is ADME, organism-based. Particulars: read-out: Drug uptake.
Data set [21] in a line: Mean residence time in rat. The settings on record: in vivo. In kind it is ADME.
Data set [22] is described as follows: Fraction unbound in C57BL/6 mouse plasma. The format is ADME, cell-free.
The nature of data set [23]: Total drug level in HFD-fed C57BL/6 mouse pancreas at 30 mg/kg, po measured 4 hrs post dose. In kind it is ADME, organism-based. The settings on record: read-out: Drug uptake.
Data set [24] can be described thus: Ratio of drug level in HFD-fed C57BL/6 mouse liver to pancreas at 30 mg/kg, po measured 4 hrs post dose. The format is ADME, organism-based. Particulars: in vivo.
Data set [25] deals with Mus musculus. The data set can be described thus: Antidiabetic activity in HFD-fed C57BL/6 mouse assessed as decrease in blood glucose level at 30 mg/kg, po. In kind it is functional, organism-based.
Data set [26] is described as follows: Ratio of drug level in HFD-fed C57BL/6 mouse liver to pancreas at 3 mg/kg, po measured 4 hrs post dose. The format is ADME, organism-based. Particulars: in vivo.
A short description of data set [27]: Total drug level in HFD-fed C57BL/6 mouse plasma at 3 mg/kg, po measured 4 hrs post dose. In kind it is ADME, organism-based.
Data set [28] in a line: Total drug level in HFD-fed C57BL/6 mouse pancreas at 3 mg/kg, po measured 4 hrs post dose. Particulars: read-out: Drug uptake. In kind it is ADME, organism-based.
A short description of data set [29]: Ratio of drug level in HFD-fed C57BL/6 mouse liver to plasma at 30 mg/kg, ip measured 4 hrs post dose. In kind it is ADME, organism-based.
Data set [30] has as its system Mus musculus. The data set can be described thus: Toxicity in HFD-fed C57BL/6 mouse assessed as increase in plasma insulin level at 10 mg/kg, ip. In kind it is organism-based. Particulars: in vivo.
Data set [31] in a line: Total drug level in HFD-fed C57BL/6 mouse pancreas at 30 mg/kg, ip measured 4 hrs post dose. The format is ADME, organism-based. The settings on record: read-out: Drug uptake.
A short description of data set [32]: Ratio of drug level in HFD-fed C57BL/6 mouse liver to pancreas at 30 mg/kg, ip measured 4 hrs post dose. The format is ADME, organism-based. The settings on record: in vivo.
Data set [33] can be described thus: Oral bioavailability in mouse. Particulars: in vivo. In kind it is ADME, organism-based.
A short description of data set [34]: Total drug level in HFD-fed C57BL/6 mouse liver at 30 mg/kg, ip measured 4 hrs post dose. The format is ADME, organism-based. The settings on record: read-out: Drug uptake.
The subject of data set [35] is Mus musculus. The data set can be described thus: Antidiabetic activity in HFD-fed C57BL/6 mouse assessed as decrease in blood glucose level at 10 to 30 mg/kg, ip. The format is functional, organism-based.
Data set [36] can be described thus: Ratio of drug level in HFD-fed C57BL/6 mouse pancreas to plasma at 30 mg/kg, ip measured 4 hrs post dose. The format is ADME, organism-based.
For data set [37], the system named is Mus musculus. In words: Antidiabetic activity in HFD-fed C57BL/6 mouse assessed as decrease in plasma insulin level at 30 mg/kg, ip. In kind it is functional, organism-based.
Data set [38] can be described thus: Total drug level in HFD-fed C57BL/6 mouse plasma at 30 mg/kg, ip measured 4 hrs post dose. The format is ADME, organism-based.

By Kp is commonly meant the ratio of the level in a tissue or fluid to that in plasma or blood. As a reminder, the half-life is the time needed for the level to fall by half in the phase considered. A high value points to slow loss. Usually EC50 stands for the concentration that produces a half-maximal response. Usually Papp stands for a coefficient for how fast a substance crosses the barrier. What is called clearance is the rate of elimination divided by the concentration. Read a high clearance as efficient removal. For orientation: bioavailability means dose-corrected exposure relative to a reference, in per cent. Low readings indicate poor availability, high ones good availability. As a reminder, the MRT is a mean duration of stay, worked out from the concentration-time curve. A word on the fraction unbound: it is the share of the substance not bound to proteins or other matrix. A higher fraction unbound goes with much free substance.

For `Cc1ccc(Sc2ccc(Sc3nnc[nH]3)nc2C(=O)Nc2ncns2)cn1`, the Kp at 4 h in data set [1] stood at 0.5; in [6], 4.5. In addition, in data set [2], the half-life is 2.7 h. Also, the EC50 on Hexokinase-4 came to 27.7 nM. In addition, the result in the data set with Mus musculus [3] was Active. Moreover, the Papp in data set [4] came to 21 ×10⁻⁶ cm/s. Also, the Activity result in the data set with Mus musculus [5] is listed as “Toxic”. In addition, the clearance in data set [7] is 1.9 mL/min/kg. The concentration at 4 h in data set [8] is 18.5 µM; in data set [9], 8.7 µM; in [11], 77.7 µM. Further, in data set [10], the Ratio is 8.9. The compound also returned a bioavailability in data set [12] of 100%.

On to `COc1ccc(Sc2ccc(Sc3ccccn3)nc2C(=O)Nc2nc(CC(=O)O)c(Cl)s2)cc1`, for which the EC50 at Hexokinase-4 stood at 5.7 nM. The Papp in data set [4] is 22 ×10⁻⁶ cm/s.

Consider `COc1ccc(Sc2ccc(Sc3ccccn3)nc2C(=O)Nc2nc(CC(=O)O)cs2)cc1`, for which the half-maximal effective concentration (EC50) at Hexokinase-4 came out at 49 nM.

As to `COc1ccc(Sc2ccc(Sc3ccccn3)nc2C(=O)Nc2ncc(CCC(=O)O)s2)cc1`, on Hexokinase-4, the EC50 was found to be 68.5 nM.

`O=C(O)Cc1nc(NC(=O)c2nc(Sc3ccccn3)ccc2Sc2ccc(F)cc2)sc1Cl`: the Kp at 4 h turned out to be 0.1 in [1]; 6.7 in [14]; 17.7 in data set [15]; 0.11 in data set [17]; 0.13 in [19]; 12.4 in data set [6]. Also, the concentration at 4 h is 19.6 µM in data set [13]; 127 µM in data set [16]; 10.4 µM in [20]; 2.1 µM in data set [23]; 4.5 µM in data set [8]; 0.47 µM in data set [9]. The concentration at 4 h in [11] amounted to 51.5 µM; in data set [27], 0.62 µM; in data set [28], 0.074 µM. Moreover, in data set [2], the half-life is 3.9 h. Moreover, at Hexokinase-4, the EC50 is 9.6 nM. Further, the outcome with Mus musculus [3] and with Mus musculus [25] was Active. In addition, the Activity entry is given as “Toxic” with Mus musculus [18] and “Non-Toxic” in the data set on Mus musculus [5]. The Papp in [4] turned out to be 25 ×10⁻⁶ cm/s. Further, the MRT in data set [21] is 1.4 h. The compound also gave a fraction unbound in [22] of 0.049. For the same compound, the results for the Ratio in data set [24], in [26] and in data set [10] were 70, 159 and 127 to 128, respectively. In data set [7], this compound returned a clearance of 50 mL/min/kg. In data set [12], the bioavailability is 25%.

In the case of `COc1ccc(Sc2ccc(Sc3nncn3C)nc2C(=O)Nc2ncc(SCC(=O)O)s2)cc1`, the Kp at 4 h in data set [29] was 14.9; in data set [36] it was 0.16. Besides, in data set [2], the half-life was 2 h. Besides, the half-maximal effective concentration (EC50) on Hexokinase-4 worked out at 51.5 nM. In addition, in the data set on Mus musculus [30], the Activity entry is reported as “Non-Toxic”. The values for the concentration at 4 h in data set [31], in data set [34] and in [38] were 4 µM, 452 µM and 31 µM, respectively. The Ratio in data set [32] was 113. In data set [4], the Papp is 2 ×10⁻⁶ cm/s. This compound gave an MRT in data set [21] of 0.64 h. The bioavailability in [33] is 3%; in data set [12], 1 to 1.2%. Moreover, the outcome in the data set with Mus musculus [35] and in the data set on Mus musculus [37] was Active. Moreover, in data set [7], the clearance was found to be 115 mL/min/kg.

In the case of `COc1ccc(Sc2ccc(Sc3ccccn3)nc2C(=O)Nc2ncc(SCC(=O)O)s2)cc1`, the half-life in data set [2] was 2.1 h. Further, on Hexokinase-4, the EC50 was found to be 14 nM. Besides, in [4], the Papp worked out at 26 ×10⁻⁶ cm/s. The compound further had an MRT in data set [21] of 0.76 h. Besides, the fraction unbound in data set [22] was determined as 0.003. In [7], the clearance stood at 28 mL/min/kg. Besides, the bioavailability in data set [12] was 57%.
